Results reported in ChEMBL document CHEMBL1128021, “Potent and selective inhibitors of gelatinase-a 1. hydroxamic acid derivatives” (Bioorg Med Chem Lett, 1994).

Assays:
Stromelysin-1 = Stromelysin-1 (Homo sapiens, UniProt P08254); assay: Inhibition of the stromelysin enzyme.
[1] = biological target: 72 kDa type IV collagenase (Homo sapiens, UniProt P08253); assay: Inhibition of the gelatinase-A enzyme.
Interstitial collagenase = biological target: T1, Interstitial collagenase (Homo sapiens, UniProt P03956); assay: Inhibition of the collagenase enzyme.
T1 sequence (P03956 whole entry): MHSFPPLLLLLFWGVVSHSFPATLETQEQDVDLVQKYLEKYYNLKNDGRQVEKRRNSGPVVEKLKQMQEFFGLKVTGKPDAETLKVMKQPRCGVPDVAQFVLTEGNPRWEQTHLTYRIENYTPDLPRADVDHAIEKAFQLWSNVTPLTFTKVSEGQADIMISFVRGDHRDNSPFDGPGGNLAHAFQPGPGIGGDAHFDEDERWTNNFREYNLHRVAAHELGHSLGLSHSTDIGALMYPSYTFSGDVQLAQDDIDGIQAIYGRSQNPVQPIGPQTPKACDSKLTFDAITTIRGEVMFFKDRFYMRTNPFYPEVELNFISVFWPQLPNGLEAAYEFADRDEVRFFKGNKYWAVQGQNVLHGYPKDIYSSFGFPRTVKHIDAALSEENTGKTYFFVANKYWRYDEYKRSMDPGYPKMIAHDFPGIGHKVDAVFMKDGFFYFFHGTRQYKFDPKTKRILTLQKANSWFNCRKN

Stromelysin-1, sequence (P08254 whole entry): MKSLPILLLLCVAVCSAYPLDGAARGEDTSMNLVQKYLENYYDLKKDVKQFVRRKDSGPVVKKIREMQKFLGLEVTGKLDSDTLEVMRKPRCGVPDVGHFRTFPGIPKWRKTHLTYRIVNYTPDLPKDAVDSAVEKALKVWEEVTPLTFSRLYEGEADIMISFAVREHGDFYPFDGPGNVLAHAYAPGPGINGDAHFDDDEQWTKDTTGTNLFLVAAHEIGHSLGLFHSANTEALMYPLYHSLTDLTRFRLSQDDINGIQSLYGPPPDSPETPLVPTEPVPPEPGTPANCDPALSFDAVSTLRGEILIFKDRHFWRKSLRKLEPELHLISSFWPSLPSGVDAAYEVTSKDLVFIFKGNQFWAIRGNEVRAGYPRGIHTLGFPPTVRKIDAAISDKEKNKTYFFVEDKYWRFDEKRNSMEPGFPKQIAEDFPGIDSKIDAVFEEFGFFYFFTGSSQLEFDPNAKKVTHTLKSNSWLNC
72 kDa type IV collagenase, sequence (P08253 whole entry): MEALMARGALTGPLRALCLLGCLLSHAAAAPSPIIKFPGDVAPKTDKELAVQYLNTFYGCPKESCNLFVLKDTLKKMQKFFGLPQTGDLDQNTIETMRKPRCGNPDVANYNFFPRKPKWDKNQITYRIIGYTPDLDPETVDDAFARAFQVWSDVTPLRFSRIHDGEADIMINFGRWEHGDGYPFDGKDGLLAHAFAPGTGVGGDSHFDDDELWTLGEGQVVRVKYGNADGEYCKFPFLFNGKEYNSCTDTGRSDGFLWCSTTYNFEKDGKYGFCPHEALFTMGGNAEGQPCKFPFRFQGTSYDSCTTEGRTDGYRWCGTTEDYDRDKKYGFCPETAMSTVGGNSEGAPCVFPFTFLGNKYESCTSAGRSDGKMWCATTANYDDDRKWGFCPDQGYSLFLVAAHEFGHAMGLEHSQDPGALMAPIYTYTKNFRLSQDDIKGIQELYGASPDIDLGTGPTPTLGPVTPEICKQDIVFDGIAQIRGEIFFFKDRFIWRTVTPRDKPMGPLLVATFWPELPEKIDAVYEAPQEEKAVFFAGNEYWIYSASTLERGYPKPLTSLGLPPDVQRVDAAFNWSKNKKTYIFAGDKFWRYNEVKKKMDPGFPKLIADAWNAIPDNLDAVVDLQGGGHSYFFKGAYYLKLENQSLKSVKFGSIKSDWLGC

Structure (SMILES) | Ki (Stromelysin-1) [nM] | Ki [1] [nM] | Ki (Interstitial collagenase) [nM]
O=C(C[C@@H](CCCc1ccc(F)cc1)C(=O)N[C@@H](CC1CCCCC1)C(=O)NCCc1ccccc1)NO | 13.5 | 0.06 | 296
COc1ccc(CCC[C@H](CC(=O)NO)C(=O)N[C@@H](CC2CCCCC2)C(=O)NCCc2ccccc2)cc1 | 4.16 | 0.06 | 1530
O=C(C[C@@H](Cc1ccccc1)C(=O)N[C@@H](CC1CCCCC1)C(=O)NCCc1ccccc1)NO | > 10000 | 1900 | > 10000
O=C(C[C@@H](CCCC1CCCCC1)C(=O)N[C@@H](CC1CCCCC1)C(=O)NCCc1ccccc1)NO |  | 6.9 | 
CCc1ccc(CCC[C@H](CC(=O)NO)C(=O)N[C@@H](CC2CCCCC2)C(=O)NCCc2ccccc2)cc1 | 5.44 | 0.1 | 5120
O=C(C[C@@H](CCCCc1ccccc1)C(=O)N[C@@H](CC1CCCCC1)C(=O)NCCc1ccccc1)NO | 177 | 0.254 | 2500
O=C(C[C@@H](CCCc1ccccc1)C(=O)N[C@@H](CC1CCCCC1)C(=O)NCCc1ccccc1)NO | 8.3 | 0.062 | 203
O=C(C[C@@H](CCCc1ccc(C(F)(F)F)cc1)C(=O)N[C@@H](CC1CCCCC1)C(=O)NCCc1ccccc1)NO | 90.3 | 0.3 | 5000
CC(C)C[C@H](CC(=O)NO)C(=O)N[C@@H](CC1CCCCC1)C(=O)NCCc1ccccc1 | 25.3 | 0.33 | 7.8
O=C(C[C@@H](CCc1ccccc1)C(=O)N[C@@H](CC1CCCCC1)C(=O)NCCc1ccccc1)NO | 77 | 2.24 | 618
Cc1ccc(CCC[C@H](CC(=O)NO)C(=O)N[C@@H](CC2CCCCC2)C(=O)NCCc2ccc(S(N)(=O)=O)cc2)cc1 | 2.98 | 0.01 | 329
CC(C)C[C@H](CC(=O)NO)C(=O)N[C@@H](CC(C)C)C(=O)N[C@@H](Cc1ccccc1)C(N)=O | 127 |  | 303

Next, values leading:

Ki (Stromelysin-1) [nM] | Ki [1] [nM] | Ki (Interstitial collagenase) [nM] | Structure (SMILES)
7.31 | 0.03 |  | O=C(C[C@@H](CCCc1ccc(Cl)cc1)C(=O)N[C@@H](CC1CCCCC1)C(=O)NCCc1ccccc1)NO
8.24 | 0.08 | 921 | Cc1ccc(CCC[C@H](CC(=O)NO)C(=O)N[C@@H](CC2CCCCC2)C(=O)NCCc2ccccc2)cc1
22.2 | 0.05 | 1050 | CN(C)CCCCNC(=O)[C@H](CC1CCCCC1)NC(=O)[C@H](CCCc1ccc(Cl)cc1)CC(=O)NO
6.26 | 0.01 | 455 | Cc1ccc(CCC[C@H](CC(=O)NO)C(=O)N[C@@H](CC2CCCCC2)C(=O)NCCN2CCOCC2)cc1
8.15 | 0.59 | 942 | O=C(C[C@@H](CCCc1ccccc1)C(=O)N[C@@H](CC1CCCCC1)C(=O)NCCc1ccc(S(=O)(=O)O)cc1)NO
 | 0.01 |  | O=C(C[C@@H](CCCc1ccc(Cl)cc1)C(=O)N[C@@H](CC1CCCCC1)C(=O)NCCNS(=O)(=O)N1CCOCC1)NO
6.35 | 0.03 | 382 | NS(=O)(=O)c1ccc(CCNC(=O)[C@H](CC2CCCCC2)NC(=O)[C@H](CCCc2ccc(Cl)cc2)CC(=O)NO)cc1
0.96 | 0.01 | 135 | COC(=O)CCNC(=O)[C@H](CC1CCCCC1)NC(=O)[C@H](CCCc1ccc(Cl)cc1)CC(=O)NO
1.38 | 0.02 | 319 | O=C(C[C@@H](CCCc1ccc(Cl)cc1)C(=O)N[C@@H](CC1CCCCC1)C(=O)NCCC(=O)N1CCOCC1)NO
0.8 | 0.01 | 193 | O=C(O)CCNC(=O)[C@H](CC1CCCCC1)NC(=O)[C@H](CCCc1ccc(Cl)cc1)CC(=O)NO
 | 0.01 |  | Cc1ccc(CCC[C@H](CC(=O)NO)C(=O)N[C@@H](CC2CCCCC2)C(=O)NCCNS(=O)(=O)N2CCOCC2)cc1
2.39 | 0.03 | 313 | O=C(C[C@@H](CCCc1ccc(Cl)cc1)C(=O)N[C@@H](CC1CCCCC1)C(=O)NCCCCN1CCOCC1)NO
5.87 | 0.02 | 313 | Cc1ccc(CCC[C@H](CC(=O)NO)C(=O)N[C@@H](CC2CCCCC2)C(=O)NCCCCN(C)C)cc1
2.61 | 0.02 | 642 | Cc1ccc(CCC[C@H](CC(=O)NO)C(=O)N[C@@H](CC2CCCCC2)C(=O)NCCCCN2CCOCC2)cc1
